Experimental data reported in patent publication US20120115944A1, “USE OF CARNITINE AND DIHYDROQUERCITIN TO POSITIVELY INFLUENCE THE NATURAL PIGMENTATION PROCESS” (Henkel AG & Co., KGaA, priority 2009, published 2012).

Columns and labels:
Assay type in all cases: cell-based
KGF = experiment: Relative excretion of KGF (ELISA) in organotypic hair follicle cell cultures; conditions: 72 hours, untreated = 100
Description: (§1) L-Carnitine and L-carnitine tartrate were investigated with regard to their effects on ATP synthesis the excretion of the growth factors HGF (hepatocyte growth factors) and KGF (keratinocyte growth factor). ATP (adenosine triphosphate) is the universal storage form for chemical energy in cells. Release of the phosphate groups yields ADP and Pi (inorganic phosphate). This reaction is highly exergonic, i.e. energy is released. ATP is produced in the cellular oxidative breakdown of fats, carbohydrates, and proteins. It serves as an energy supply for biochemical syntheses (including melanin synthesis), for transport operations (active transport), and for mechanical work. These processes are endergonic, i.e. they proceed only when energy is delivered. HGF and KGF are important growth factors with which the dermal papilla controls hair growth and the hair cycle, to which pigment production in the hair follicle is linked in particular fashion. Melanin formation takes place exclusively in the anagen phase of the hair cycle. […]
(§2) The excretion of HGF and KGF can be quantified with the aid of a commercially obtainable ELISA kit. For this, organotypic hair follicle cell cultures made up of dermal papilla cells, hair follicle melanocytes, and outer root sheath keratinocytes are incubated for 72 hours with carnitine tartrate, and the concentration of HGF and KGF in the medium is determined.

HGF = experiment: Relative excretion of HGF (ELISA) in organotypic hair follicle cell cultures; conditions: 72 hours, untreated = 100
Description: as §1, §2

[1] = tested on: organotypic cell cultures made up of three-dimensionally cultivated dermal papilla cells; experiment: ATP content in hair follicle cell cultures (ATPlite-M assay); conditions: 24 hours, untreated = 100
Description: L-Carnitine and L-carnitine tartrate were investigated with regard to their effects on ATP synthesis the excretion of the growth factors HGF (hepatocyte growth factors) and KGF (keratinocyte growth factor). ATP (adenosine triphosphate) is the universal storage form for chemical energy in cells. Release of the phosphate groups yields ADP and Pi (inorganic phosphate). This reaction is highly exergonic, i.e. energy is released. ATP is produced in the cellular oxidative breakdown of fats, carbohydrates, and proteins. It serves as an energy supply for biochemical syntheses (including melanin synthesis), for transport operations (active transport), and for mechanical work. These processes are endergonic, i.e. they proceed only when energy is delivered. HGF and KGF are important growth factors with which the dermal papilla controls hair growth and the hair cycle, to which pigment production in the hair follicle is linked in particular fashion. Melanin formation takes place exclusively in the anagen phase of the hair cycle. In addition, a variety of publications have discussed the effect of HGF on DNA synthesis, on growth, and on the differentiation of melanocytes.
The ATP determination was performed using the ATPlite™-M assay (Packard). The test principle of this assay is based on the fact that the luciferase of Photinus pyralis catalyzes a reaction in which D-luciferin is converted into oxyluciferin in the presence of ATP. This reaction causes the emission of green light, which can be measured with a luminometer. The emitted bioluminescent light is proportional to the quantity of ATP present.
The ATP activity determination was performed in organotypic cell cultures made up of three-dimensionally cultivated dermal papilla cells. The treatment with carnitine and carnitine tartrate occurred over 24 hours, against an untreated control.

gp100 = experiment: Differential gene expression by quantitative RT-PCR in organotypic hair follicle cell cultures: gp100; conditions: 48 h incubation, untreated control = 1
Description: Gp100 is a protein that occurs in the membrane of melanosomes and stabilizes it. Because more melanin is produced in the cells after the application of substances that positively influence melanogenesis, an increase also occurs in the number of melanosomes required for transport. A substance that induces the gene expression of gp100 is therefore a pigmentation-stimulating active substance. A determination of the extent of the change in gene expression after an application of such substances onto suitable cells/cell systems/tissue cultures can provide information regarding the efficacy of the active substance. Differential gene expression was determined by means of quantitative RT-PCR. After three-dimensional organotypic hair follicle cell cultures from dermal papilla cells had been produced on microcarriers, the latter were incubated for 48 h with dihydroquercetin in two different concentrations. In order to carry out the PCR, firstly the RNA was isolated from the organotypic cell cultures using the RNeasy Mini Kit of the Qiagen company, and it was transcribed into cDNA by reverse transcription. In the context of the subsequent PCR reaction, which was carried out using gene-specific primers for the respective genes and which serves to amplify the desired gene segments, formation of the PCR products was detected online by way of a fluorescence signal, which is proportional to the quantity of PCR product formed. The stronger the expression of a specific gene, the greater the quantity of PCR product formed, and the higher the fluorescence signal. The quantify the gene expression, the untreated control was set to equal 1, and expression of the genes to be determined was referred to it (X-times expression). […] Values that are greater than or equal to 1.5 times the expression, or less than or equal to 0.7 times the expression, of the untreated control are classified as tending toward differential expression.

[2] = tested on: MCR1 (melanocortin receptor 1); experiment: Differential gene expression by quantitative RT-PCR in organotypic hair follicle cell cultures: MCR1; conditions: 48 h incubation, untreated control = 1
Description: Ligands participating in melanogenesis, such as SCF or alpha-MSH (melanocyte stimulating hormone alpha), bind to a variety of receptors by means of which the corresponding signal is delivered into the interior of the cell. The receptor for SCF is ckit, the receptor for alpha-MSH is MCR-1 (melanocortin receptor 1). Those substances that bring about a change in the expression of MCR-1 and/or ckit can influence melanogenesis. In the case of an induction (upregulation or stimulation) of the gene expression of the corresponding receptors, a stimulation of melanogenesis is to be assumed. A determination of the extent of the change in gene expression after an application of such substances onto suitable cells/cell systems/tissue cultures can provide information regarding the efficacy of the active substance. Differential gene expression was determined by means of quantitative RT-PCR. After three-dimensional organotypic hair follicle cell cultures from dermal papilla cells had been produced on microcarriers, the latter were incubated for 48 h with dihydroquercetin in two different concentrations. In order to carry out the PCR, firstly the RNA was isolated from the organotypic cell cultures using the RNeasy Mini Kit of the Qiagen company, and it was transcribed into cDNA by reverse transcription. In the context of the subsequent PCR reaction, which was carried out using gene-specific primers for the respective genes and which serves to amplify the desired gene segments, formation of the PCR products was detected online by way of a fluorescence signal, which is proportional to the quantity of PCR product formed. The stronger the expression of a specific gene, the greater the quantity of PCR product formed, and the higher the fluorescence signal. The quantify the gene expression, the untreated control was set to equal 1, and expression of the genes to be determined was referred to it (X-times expression). […] Values that are greater than or equal to 1.5 times the expression, or less than or equal to 0.7 times the expression, of the untreated control are classified as tending toward differential expression.

ckit = experiment: Differential gene expression by quantitative RT-PCR in organotypic hair follicle cell cultures: ckit; conditions: 48 h incubation, untreated control = 1
Description: Ligands participating in melanogenesis, such as SCF or alpha-MSH (melanocyte stimulating hormone alpha), bind to a variety of receptors by means of which the corresponding signal is delivered into the interior of the cell. The receptor for SCF is ckit, the receptor for alpha-MSH is MCR-1 (melanocortin receptor 1). Those substances that bring about a change in the expression of MCR-1 and/or ckit can influence melanogenesis. In the case of an induction (upregulation or stimulation) of the gene expression of the corresponding receptors, a stimulation of melanogenesis is to be assumed. A determination of the extent of the change in gene expression after an application of such substances onto suitable cells/cell systems/tissue cultures can provide information regarding the efficacy of the active substance. Differential gene expression was determined by means of quantitative RT-PCR. After three-dimensional organotypic hair follicle cell cultures from dermal papilla cells had been produced on microcarriers, the latter were incubated for 48 h with dihydroquercetin in two different concentrations. In order to carry out the PCR, firstly the RNA was isolated from the organotypic cell cultures using the RNeasy Mini Kit of the Qiagen company, and it was transcribed into cDNA by reverse transcription. In the context of the subsequent PCR reaction, which was carried out using gene-specific primers for the respective genes and which serves to amplify the desired gene segments, formation of the PCR products was detected online by way of a fluorescence signal, which is proportional to the quantity of PCR product formed. The stronger the expression of a specific gene, the greater the quantity of PCR product formed, and the higher the fluorescence signal. The quantify the gene expression, the untreated control was set to equal 1, and expression of the genes to be determined was referred to it (X-times expression). […]

[3] = tested on: three-dimensional organotypic hair follicle cell cultures made up of dermal papilla cells, hair follicle melanocytes, and outer root sheath keratinocytes; experiment: Melanin content in hair follicle equivalents
Description: Melanin is a dye that is produced and stored in the melanosomes of melanocytes. Melanin gives hair its actual color, the color being produced by a mixture of two types of melanin, eumelanin and pheomelanin. Melanogenesis is a complicated synthesis process regulated in many ways. Firstly, tyrosine is converted by the enzyme tyrosinase into L-dihydroxyphenylalanine (L-DOPA), and then via multiple intermediate steps into the various melanin pigments. An active substance that positively influences melanogenesis and results in an elevated melanin content in the hair follicle melanocytes is particularly suitable for influencing the natural pigmentation process of skin and/or skin appendages, preventing hair graying, and/or stimulating pigmentation.
To investigate the melanin content, three-dimensional organotypic hair follicle cell cultures made up of dermal papilla cells, hair follicle melanocytes, and outer root sheath keratinocytes were treated for 7 days with dihydroquercetin (10 μM and 100 μM). Untreated cell cultures served as controls. After 4 and 7 days the hair follicle equivalents were homogenized and the melanin was extracted for 45 minutes using NaOH (1M)+10% DMSO at 100° C. Aliquots of the samples were then transferred into a 96-well plate, and extinction at 492 nm was measured. The increase in melanin content from day 0 to day 7 was evaluated by referring all the values to the untreated control at day 7 (=100%).

[4] = 100 μM, listed as dihydroquercetin

## C[N+](C)(C)C[C@H](O)CC(=O)[O-].O=C(O)C(O)C(O)C(=O)O [Carnitine tartrate, L-carnitine tartrate]
KGF; 0.005%
  KGF (%) M, relative excretion: 123%
HGF; 0.005%
  HGF (%) M, relative excretion: 141%
[1]; 0.01%, listed as carnitine tartrate, tartrate
  ATP (%) M: increase the ATP content in the treated cultures significantly
[1]; 0.01%, tartrate
  ATP (%) M: 195%
[1]; 0.05%
  ATP (%) M: 102%

## C[N+](C)(C)CC(O)CC(=O)[O-] (stereo not shown) [Carnitine, 3-hydroxy-4-(trimethylammonium)butyric acid betaine]
KGF; 0.01%
  KGF (%) M, relative excretion: 120%
HGF; 0.01%
  HGF (%) M, relative excretion: 105%
[1]; 0.05%
  ATP (%) M: 212%
[1]; 0.05%, listed as carnitine
  ATP (%) M: increase the ATP content in the treated cultures significantly
[1]; 0.1%
  ATP (%) M: 160%
[1]; 0.1%, listed as carnitine
  ATP (%) M: increase the ATP content in the treated cultures significantly

## O=C1c2c(O)cc(O)cc2OC(c2ccc(O)c(O)c2)C1O (stereo not shown) [Dihydroquercetin, 3,3′,4′,5,7-pentahydroxyflavanone]
gp100; 10 μM
  gp100 expression M (X-times expression): 0.89
gp100; 100 μM
  gp100 expression M (X-times expression): 3.48
gp100; [4]
  gp100 expression M (X-times expression): induced
[2]; 10 μM
  MCR1 expression M (X-times expression): 2.56
[2]; 10 μM, listed as dihydroquercetin
  MCR1 expression M (X-times expression): significantly differentially expressed
[2]; 100 μM
  MCR1 expression M (X-times expression): 5.17
[2]; [4]
  MCR1 expression M (X-times expression): induced
ckit; 10 μM
  ckit expression M (X-times expression): 1.32
ckit; 100 μM
  ckit expression M (X-times expression): 3.55
ckit; [4]
  ckit expression M (X-times expression): induced
[3]; 10 μM, d 4
  Melanin content (%) M: 100%
[3]; 10 μM, d 7, untreated d 7 = 181
  Melanin content (%) M: 254%
[3]; 100 μM, d 4
  Melanin content (%) M: 100%
[3]; 100 μM, d 7, untreated d 7 = 181
  Melanin content (%) M: 161%
